According to BindingDB's records for patent US12065407 (Plex Pharmaceuticals, 2024):

What was measured:
[1] = target: Peptidyl-prolyl cis-trans isomerase FKBP1A (Homo sapiens, UniProt P62942); assay: Ki Estimation
[2] = target: T1, Peptidyl-prolyl cis-trans isomerase FKBP4 (Homo sapiens, UniProt Q02790); assay: Ki Estimation
T1 sequence (Q02790 whole entry): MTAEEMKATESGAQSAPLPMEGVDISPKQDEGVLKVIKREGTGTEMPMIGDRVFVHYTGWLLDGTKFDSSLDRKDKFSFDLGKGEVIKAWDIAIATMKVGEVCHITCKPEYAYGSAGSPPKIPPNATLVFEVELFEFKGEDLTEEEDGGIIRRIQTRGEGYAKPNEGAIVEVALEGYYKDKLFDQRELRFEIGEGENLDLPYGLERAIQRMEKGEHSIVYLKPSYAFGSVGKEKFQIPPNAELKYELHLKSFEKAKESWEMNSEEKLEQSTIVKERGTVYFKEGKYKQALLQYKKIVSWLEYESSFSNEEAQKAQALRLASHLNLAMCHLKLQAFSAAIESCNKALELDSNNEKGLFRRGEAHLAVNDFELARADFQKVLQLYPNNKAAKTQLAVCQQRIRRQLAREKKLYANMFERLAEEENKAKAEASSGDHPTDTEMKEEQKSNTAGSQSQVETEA

Chain of Peptidyl-prolyl cis-trans isomerase FKBP1A (P62942 whole entry): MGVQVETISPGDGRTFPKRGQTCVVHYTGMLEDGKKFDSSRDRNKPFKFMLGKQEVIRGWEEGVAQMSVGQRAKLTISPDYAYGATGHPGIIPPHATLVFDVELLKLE

Row | Structure (SMILES) | Ki [1] | Ki [2]
1 | O=C(N[C@H](Cc1ccc(Cl)cc1)C(=O)NCCCc1ccccc1)c1ccc2ccccc2c1 [US12065407, ID CAP01691] | > 50 µM | 
2 | CC(C)Cn1c(/C=C/c2ccccc2)nc2ccccc21 [US12065407, ID CAP01555] | > 15 µM | > 20 µM
3 | C(=C\c1nc2ccccc2n1Cc1ccccc1)/c1ccccc1 [US12065407, ID CAP01548] | > 15 µM | > 20 µM
4 | O=C(N[C@@H](Cc1ccc(Cl)cc1)C(=O)NCCCc1ccccc1)C1C2CC3CC(C2)CC1C3 (stereo partly specified) [US12065407, ID CAP01685] | 32.5 µM | 
5 | Fc1ccccc1Cn1c(/C=C/c2ccccc2)nc2ccccc21 [US12065407, ID CAP01547] | > 10 µM | > 15 µM
6 | O=C(N[C@@H](Cc1ccc(Cl)cc1)C(=O)NCCCc1ccccc1)c1nc2ccccc2[nH]1 [US12065407, ID CAP01721] |  | > 50 µM
7 | CCCCn1c(/C=C/c2ccccc2)nc2ccccc21 [US12065407, ID CAP01554] | > 10 µM | > 15 µM
8 | O=C(N[C@@H](Cc1ccc(Cl)cc1)C(=O)NCCCc1ccccc1)c1ccc(F)cc1 [US12065407, ID CAP01719] | > 25 µM | > 25 µM
9 | O=C(N[C@@H](Cc1ccc(F)cc1)C(=O)NCCCc1ccccc1)c1ccc2ccccc2c1 [US12065407, ID CAP01740] | > 40 µM | > 40 µM
10 | Cn1c(/C=C/c2ccc(Cl)cc2)nc2ccccc21 [US12065407, ID CAP01509] | > 10 µM | > 10 µM
11 | CCCn1c(/C=C/c2ccccc2)nc2ccccc21 [US12065407, ID CAP01549] | > 20 µM | > 25 µM
12 | CCC(C)(C)C(=O)N[C@H](C(=O)OCCCc1cccnc1)C1CCCC1 [US12065407, ID Tbl1.1] | > 25 µM | > 25 µM
